Results: patent publication US20160016907A1, “PYRIDINE DERIVATIVES AS MUSCARINIC M1 RECEPTOR POSITIVE ALLOSTERIC MODULATORS” (PFIZER INC., priority 2014, published 2016)
Where a name gives a salt, the structure may show the parent alone.

Target: T1, human M1 muscarinic acetylcholine receptors (Homo sapiens, UniProt P11229)
T1 sequence (P11229 1-460): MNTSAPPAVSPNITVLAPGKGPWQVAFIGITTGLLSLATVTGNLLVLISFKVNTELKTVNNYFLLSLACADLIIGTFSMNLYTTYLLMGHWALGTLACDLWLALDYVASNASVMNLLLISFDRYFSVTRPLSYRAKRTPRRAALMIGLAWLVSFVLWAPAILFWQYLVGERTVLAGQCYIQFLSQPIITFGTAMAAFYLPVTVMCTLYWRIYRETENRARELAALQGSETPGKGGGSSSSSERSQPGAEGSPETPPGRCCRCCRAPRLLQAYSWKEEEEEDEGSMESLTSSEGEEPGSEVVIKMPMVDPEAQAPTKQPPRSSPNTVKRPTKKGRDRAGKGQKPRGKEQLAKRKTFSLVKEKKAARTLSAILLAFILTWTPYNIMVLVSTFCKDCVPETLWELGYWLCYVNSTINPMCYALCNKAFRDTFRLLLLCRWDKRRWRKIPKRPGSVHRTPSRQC
Test: M1 FLIPR assay (PAM, intracellular calcium)
Type: cell-based
Settings: potentiation of EC10-EC30 acetylcholine, values marked a: geometric mean of ≧7 determinations, read-out: M1 PAM Inflection Point (μM) Geometric mean of 2-6 determinations (unless otherwise indicated)
Protocol: This assay was designed to select and characterize compounds that affect the activity of human M1 muscarinic acetylcholine receptors (Similar M1 PAM FLIPR assays can be found, for example, at U.S. Pat. No. 8,664,234). Human M1 receptors were stably expressed in Chinese hamster ovary (CHO) cells (HD Bioscience). The effect of test compounds on intracellular calcium was measured on an FLIPR Tetra (Molecular Devices) using the Fluo-8, AM calcium dye (Molecular Probes) with a red dye quenching agent (Sigma).
CHO cells expressing hM1 cells had been previously cultured and frozen in assay ready vials. Cell vials were thawed, then plated at a density of 10,000 cells per well in a 384 well black wall, clear bottom plate (Greiner #781090) and incubated overnight at 37 degrees C. with 5% CO2. Cells were grown and plated in F12 nutrient media (Gibco BRL #21700-075) supplemented with 10% FBS (Hyclone #CH30160.03) and Pen/Strep (Gibco #15070-063).
After overnight incubation, cell plates were removed from the incubator and the growth media was discarded and replaced with loading solution containing the following: 2 μM Fluo-8-AM (Molecular Probes #F14242), 2 mM Probenecid (Sigma #P8761), lx Acid Red 1 (Sigma #210633), in HBSS buffer containing (grams/L): 0.1 CaCl2, 0.1 MgCl2*6H2O, 0.049 MgSO4, 0.4 KCl, 0.06 KH2PO4, 8.06 NaCl, 0.12 Na2HPO4*12H2O, 1.1 D-glucose*H2O, 0.35 NaHCO3, 4.766 HEPES, pH 7.4. The plate was incubated in the loading solution at 37 degrees C. in the dark for 1 hour.
Test compounds were initially prepared as 100% DMSO stock solutions, then transferred and serially diluted in 384-well compound plates (Greiner #784201). Each compound was tested at 10 concentrations in duplicate per experiment. Positive and negative controls for positive allosteric modulator evaluation were 30 μM acetylcholine (Ach) and an EC10-EC30 concentration of acetylcholine, approximately 2 nM but could be adjusted for each experiment to maintain the EC10-EC30 range.
After the 1-hour dye loading incubation, test compounds were added to the cell plate containing Fluo-8. Approximately 10 minutes after compound addition, an EC10-EC30 concentration of acetylcholine was added to each well and the fluorescence measured to determine the PAM potentiation of the compound.
Data was exported from the FLIPR Tetra as maximum fluorescence/minimum fluorescence for each well. The percent effect for each compound well was determined using the mean values for the positive and negative controls on each plate for each read. Percent effect was 100*(compound negative control)/(positive control negative control). Dose response curves were fitted to the compound percent effect data using a 4-parameter logistic fit model to determine PAM (positive allosteric modulator) Inflection Point values. Compounds with inverted U dose response curves had the concentrations greater than the concentration giving the peak response excluded from the fit. Data was reported as Inflection Point. The compounds of Examples 1-72 had activity according to this assay, generally with an Inflection Point (IP) of 10 μM or less (using Inflection Point as a measure of activity). Such a result is indicative of the intrinsic activity of the compounds of the invention as M1 allosteric modulators.

Compared with `Cc1nc(-c2ccc(Cc3cc(C(=O)N[C@H]4CCCC[C@@H]4O)ncc3C)cc2)co1` [Example 23, N-[(1S,2S)-2-hydroxycyclohexyl]-5-methyl-4-[4-(2-methyl-1,3-oxazol-4-yl)benzyl]pyridine-2-carboxamide], `Cc1nc(-c2ccc(Cc3cc(C(=O)NC4CCOCC4O)ncc3C)cc2)co1` (single isomer, unassigned; (+)) [Example 11, (+)-N-[(3,4-trans)-3-Hydroxytetrahydro-2H-pyran-4-yl]-5-methyl-4-[4-(2-methyl-1,3-oxazol-4-yl)benzyl]pyridine-2-carboxamide] is 2.5-fold lower in EC50: 0.363 µM for the first, 0.146 µM for the second. The second is the more potent here.

Compared with `Cc1nnc(-c2ccc(Cc3cc(C(=O)NC4CCOCC4O)ncc3C)cc2)o1` (single isomer, unassigned) [Example 21], `Cc1nc(-c2ccc(Cc3cc(C(=O)N[C@H]4CCOC[C@@H]4O)ncc3C)cc2)no1` [Example 19, N-[(3R,4S)-3-hydroxytetrahydro-2H-pyran-4-yl]-5-methyl-4-[4-(5-methyl-1,2,4-oxadiazol-3-yl)benzyl]pyridine-2-carboxamide] is 2.9-fold higher in EC50: 1.95 µM for the first, 5.57 µM for the second.

Going from `Cc1nc(C(=O)N[C@H]2CCCC[C@@H]2O)cc(Cc2ccc(-n3cccn3)cc2)c1Cl` [Example 17, 5-Chloro-N-[(1S,2S)-2-hydroxycyclohexyl]-6-methyl-4-[4-(1H-pyrazol-1-yl)benzyl]pyridine-2-carboxamide] to `Cc1cnc(C(=O)NC2CCCCC2O)cc1Cc1ccc(-n2cccn2)cc1` (single isomer, unassigned; (-)) [Example 12, (−)-N-[(1,2-cis)-2-Hydroxycyclohexyl]-5-methyl-4-[4-(1H-pyrazol-1-yl)benzyl]pyridine-2-carboxamide], the EC50 rises from 0.191 µM to 0.96 µM (5-fold).

First: COc1cnc(C(=O)N[C@H]2CCOC[C@@H]2O)cc1Cc1ccc(-c2cscn2)cc1 [Example 68, N-[(3R,4S)-3-hydroxytetrahydro-2H-pyran-4-yl]-5-methoxy-4-[4-(1,3-thiazol-4-yl)benzyl]pyridine-2-carboxamide]
Second: Cc1cnc(C(=O)N[C@H]2CCOC[C@@H]2O)cc1Cc1ccc(-c2cn(C)nc2C)cc1 [Example 61, 4-[4-(1,3-Dimethyl-1H-pyrazol-4-yl)benzyl]-N-[(3R,4S)-3-hydroxytetrahydro-2H-pyran-4-yl]-5-methylpyridine-2-carboxamide]
The EC50 of the first is 1.6-fold lower: 0.074 µM for the first, 0.116 µM for the second.

Compared with `Cc1cnc(C(=O)NCC2CCO2)cc1Cc1ccc(-n2cccn2)cc1` (stereo not drawn) [Example 45, 5-methyl-N-(oxetan-2-ylmethyl)-4-[4-(1H-pyrazol-1-yl)benzyl]pyridine-2-carboxamide], `Cc1cnc(C(=O)NC[C@@H]2CCCO2)cc1Cc1ccc(-n2cccn2)cc1` [Example 16, 5-Methyl-4-[4-(1H-pyrazol-1-yl)benzyl]-N-[(2S)-tetrahydrofuran-2-ylmethyl]pyridine-2-carboxamide, formate salt] is 4-fold lower in EC50: 7.21 µM for the first, 1.82 µM for the second. The second is the more potent here.

First: Cc1cnc(C(=O)N[C@H]2CCOC[C@@H]2O)cc1[C@H](F)c1ccc(-n2cccn2)cc1 [Example 56, 4-{(R)-Fluoro[4-(1H-pyrazol-1-yl)phenyl]methyl}-N-[(3R,4S)-3-hydroxytetrahydro-2H-pyran-4-yl]-5-methylpyridine-2-carboxamide]
Second: Cc1cnc(C(=O)N[C@@H]2CCOC[C@H]2O)cc1Cc1ccc(-n2cccn2)cc1 [Example 8, N-[(3S,4R)-3-Hydroxytetrahydro-2H-pyran-4-yl]-5-methyl-4-[4-(1H-pyrazol-1-yl)benzyl]pyridine-2-carboxamide]
The EC50 of the first is 160-fold lower: 0.03 µM for the first, 4.86 µM for the second.

`O=C(N[C@H]1CCOC[C@@H]1O)c1cc(Cc2ccc(-n3cccn3)cc2)c(Cl)cn1` [Example 52, 5-chloro-N-[(3R,4S)-3-hydroxytetrahydro-2H-pyran-4-yl]-4-[4-(1H-pyrazol-1-yl)benzyl]pyridine-2-carboxamide] and `O=C(N[C@H]1CCOC[C@@H]1O)c1cc(Cc2ccc(-n3cccn3)cc2)c(C(F)F)cn1` [Example 54, 5-(difluoromethyl)-N-[(3R,4S)-3-hydroxytetrahydro-2H-pyran-4-yl]-4-[4-(1H-pyrazol-1-yl)benzyl]pyridine-2-carboxamide] are within 1.5-fold of each other in EC50: 0.187 µM for the first, 0.198 µM for the second.

Compound `Cc1cnc(C(=O)NCC(=O)N(C)C)cc1Cc1ccc(-n2cccn2)cc1` [Example 41, N-[2-(dimethylamino)-2-oxoethyl]-5-methyl-4-[4-(1H-pyrazol-1-yl)benzyl]pyridine-2-carboxamide] has an EC50 of 8.03 µM.
